How the values were obtained:
Assay type in all cases: cell-based, human
C-32 = experiment: antiproliferative activity (WST-1), melanoma C-32; details: for IC50: Homo sapiens, C32, melanoma C-32, 72 h, WST-1, Neg: negative in the concentration used, read-out: IC50 ± SD C-32; for SI (IC50 HFF-1/IC50 cancer line) C-32: selectivity index, HFF-1 vs C-32
Procedure: (§1) Biological activity of the tested compounds was assessed in vitro using cultured cell lines: melanoma C-32 (ATCC, Rockville, MD, USA), glioblastoma SNB-19 (DSMZ, Braunschweig, Germany), breast cancer MDA-MB-231 (ATCC, Rockville, MD, USA), and normal human fibroblasts derived from foreskin HFF-1 (ATCC, Rockville, MD, USA). Cell cultures were maintained using DMEM (Lonza, Basel, Switzerland) supplemented with 10% fetal bovine serum (FBS) (Biological Industries Cromwell, CT, USA) and a mixture of penicillin (10,000 U/mL) and streptomycin (10 mg/mL) (Lonza, Basel, Switzerland).
(§2) Cells were cultured using 96-well plates (Nunc Thermo Fisher Scientific, Waltham, MA, USA). Cells were seeded (5 × 10^3 cells/well) and incubated for 24 h in a standard incubator (37 °C, 5% CO2, relative humidity 95%). Subsequently, the medium was replaced with a fresh aliquot containing an examined compound (0.01; 0.05; 0.1; 0.5; 1; 5; 10; 50; 100 µg/mL), and cells were further incubated for another 72 h. Upon the conclusion of incubation, a CVDE test (Aniara, West Chester, OH, USA) using crystal violet was performed to assess the relative number of cells in the culture. A WST-1 test (Roche) was performed to examine the metabolic activity of cells and test for the presence of LDH in the medium (Roche Diagnostics GmbH, Mannheim, Germany), allowing for the assessment of the relative number of dead cells (i.e., cytotoxicity of the examined compound). UVM340 microplate readers (BIOGENET, Józefów, Poland) were used to read absorbance values.
(§3) WST-1 colorimetric assay for cell proliferation (Roche Diagnostics GmbH, Mannheim, Germany, reagent kit cat. 11644807001) is based on the viable cells’ ability to cleave the bright red-colored stable tetrazolium salt WST-1 to dark red soluble formazan. This bioreduction occurs under the influence of mitochondrial dehydrogenases (depends mostly on production of NAD(P)H in viable cells). The amount of formazan dye formed correlates directly with the number of metabolically active cells in the culture and is measured by absorbance (λ = 450 nm) following 1 h incubation of cells with the reagent.

SNB-19 = experiment: antiproliferative activity (WST-1), glioblastoma SNB-19; details: for IC50: Homo sapiens, glioblastoma SNB-19, 72 h, WST-1, Neg: negative in the concentration used, read-out: IC50 ± SD SNB-19; for SI (IC50 HFF-1/IC50 cancer line) SNB-19: selectivity index, HFF-1 vs SNB-19
Procedure: as §1, §2, §3

MDA-MB-231 = experiment: antiproliferative activity (WST-1), breast cancer MDA-MB-231; details: for IC50: Homo sapiens, read-out: IC50 ± SD MDA-MB-231; for SI (IC50 HFF-1/IC50 cancer line) MDA-MB-231: selectivity index, HFF-1 vs MDA-MB-231
Procedure: as §1, §2, §3

HFF-1 = experiment: antiproliferative activity (WST-1), normal fibroblasts HFF-1; details: normal fibroblasts HFF-1, 72 h, Neg: negative in the concentration used; for IC50: Homo sapiens, read-out: IC50 ± SD HFF-1
Procedure: as §1, §2, §3

[1] = breast cancer MDA-MB-231, 72 h, WST-1, Neg: negative in the concentration used

| IC50 (C-32) | IC50 (SNB-19) | IC50 (MDA-MB-231; [1]) | IC50 ± SD MDA-MB-231 (MDA-MB-231; [1]) | SMILES | SI (IC50 HFF-1/IC50 cancer line) C-32 (C-32) | SI (IC50 HFF-1/IC50 cancer line) SNB-19 (SNB-19) | SI (IC50 HFF-1/IC50 cancer line) MDA-MB-231 (MDA-MB-231) | IC50 (HFF-1) | times more activity against the C-32 cell compared to cisplatin (C-32; C-32, ratio of IC50 vs cisplatin) | times more activity against the C-32 cell compared to (Z)-4-octen-2,6-diyn-1,8-diol (22) (C-32; C-32, ratio of IC50 vs compound 22) | IC50 ± SD HFF-1 (HFF-1) |
| --- | --- | --- | --- | --- | --- | --- | --- | --- | --- | --- | --- |
| 10.5 ± 0.8 µM | 15.9 ± 0.3 µM | 23.3 ± 0.3 µM |  | Cc1ccc2c(n1)C(=O)C(Cl)=C(Cl)C2=O [Compound 3, 6,7-dichloro-2-methyl-5,8-quinolinedione] | 0.95 | 0.63 | 0.43 | 10 ± 1.4 µM |  |  |  |
| 16.8 ± 0.3 µM | 18.4 ± 1.7 µM | 1.4 ± 0.3 µM |  | CCCOC1=C(Cl)C(=O)c2ccccc2C1=O [Compound 4, 2-Chloro-3-propoxy-1,4-naphtoquinon] | 0.88 | 0.80 | 10.57 | 14.8 ± 0.9 µM |  |  |  |
| 4 ± 0.1 µM | 3.8 ± 0.1 µM | 6.9 ± 1.9 µM |  | C=CCOC1=C(Cl)C(=O)c2ccccc2C1=O [Compound 5, 2-Chloro-3-(2-propenoxy)-1,4-naphthoquinon] | 0.95 | 1.00 | 0.55 | 3.8 ± 0.8 µM |  |  |  |
| 3.2 ± 0.6 µM | 8.4 ± 1.2 µM | 21 ± 1.5 µM |  | C#CCOC1=C(Cl)C(=O)c2ccccc2C1=O [Compound 6, 2-Chloro-3-(2-propynoxy)-1,4-naphthoquinon] | 1.22 | 0.46 | 0.19 | 3.9 ± 0.5 µM |  |  |  |
| 26.8 ± 1.9 µM | 19.8 ± 1.4 µM | 22.2 ± 1.4 µM |  | CCCOC1=C(Cl)C(=O)c2ccc(C)nc2C1=O [Compound 10, 6-Chloro-2-methyl-7-propoxy-5,8-quinolinedione] | 0.59 | 0.80 | 0.71 | 15.8 ± 1.8 µM |  |  |  |
| 168 ± 6.2 µM | 33.8 ± 1.3 µM | 24.6 ± 2.9 µM |  | C=CCOC1=C(Cl)C(=O)c2ccc(C)nc2C1=O [Compound 11, 6-Chloro-2-methyl-7-(2-propenoxy)-5,8-quinolinedione] | 0.12 | 0.59 | 0.82 | 20.1 ± 1.2 µM |  |  |  |
| 208 ± 4.6 µM | 19.5 ± 1 µM | 17.2 ± 2.5 µM |  | C#CCOC1=C(Cl)C(=O)c2ccc(C)nc2C1=O [Compound 12, 6-Chloro-2-methyl-7-(2-propynoxy)-5,8-quinolinedione] | 0.07 | 0.72 | 0.81 | 14 ± 2.4 µM |  |  |  |
| 22.6 ± 0.8 µM | 19.9 ± 1.4 µM | 22.6 ± 2.3 µM |  | CCCOC1=C(OCCC)C(=O)c2ccccc2C1=O [Compound 13, 2,3-Dipropoxy-1,4-naphtoquinon] | 0.48 | 0.54 | 0.48 | 10.8 ± 0.5 µM |  |  |  |
| 10.6 ± 0.6 µM | 19.6 ± 1 µM | 17.9 ± 0.8 µM |  | C=CCOC1=C(OCC=C)C(=O)c2ccccc2C1=O [Compound 14, 2,3-di(2-Propenoxy)-1,4-naphthoquinon] | 0.42 | 0.22 | 0.25 | 4.4 ± 0.9 µM |  |  |  |
| 21.7 ± 0.6 µM | 18.6 ± 0.7 µM |  |  | C#CCOC1=C(OCC#C)C(=O)c2ccccc2C1=O [Compound 15, 2,3-di(2-Propynoxy)-1,4-naphthoquinon] | 0.62 | 0.73 |  |  |  |  |  |
| 131 ± 2.4 µM | 25.7 ± 1.4 µM | 71.3 ± 3.9 µM |  | CCCOC1=C(OCCC)C(=O)c2nc(C)ccc2C1=O [Compound 19, 2-Methyl-6,7-dipropoxy-5,8-quinolinedione] | 0.14 | 0.69 | 0.25 | 17.8 ± 1.8 µM |  |  |  |
| 18.9 ± 1.7 µM | 16.6 ± 3 µM | 26.8 ± 1.2 µM |  | C=CCOC1=C(OCC=C)C(=O)c2nc(C)ccc2C1=O [Compound 20, 2-Methyl-6,7-di(2-propenoxy)-5,8-quinolinedione] | 0.03 | 0.04 | 0.02 | 0.6 ± 0.2 µM |  |  |  |
| 21.1 ± 1.2 µM | 24.5 ± 1.1 µM | 23.2 ± 1.5 µM |  | C#CCOC1=C(OCC#C)C(=O)c2nc(C)ccc2C1=O [Compound 21, 2-Methyl-6,7-di(2-propynoxy)-5,8-qunolinedione] | 0.69 | 0.59 | 0.63 | 14.5 ± 2.6 µM |  |  |  |
| 159 ± 4.6 µM | 250 ± 4.3 µM |  | Neg | OCC#C/C=C\C#CCO [Compound 22, (Z)-oct-4-ene-2,6-diyne-1,8-diol] | 1.64 | 1.04 | 1.85 | 260 ± 5.6 µM |  |  |  |
| 145 ± 4.8 µM | 186 ± 5 µM | 22.5 ± 2.4 µM |  | O=C1C(Cl)=C(OCC#CC=CC#CCO)C(=O)c2ccccc21 [Compound 23, 2-Chloro-3-(8-hydroxy-4-octen-2,6-diynyloxy)-1,4-naphthoquinon] | 0.67 | 0.52 |  | 97.6 ± 4 µM |  |  |  |
| 3.1 ± 0.1 µM | 2.4 ± 0.1 µM | 110 ± 8.1 µM |  | O=C1C(Cl)=C(OCC#CC=CC#CCO)C(=O)c2ncccc21 [Compound 24, 6-Chloro-7-(8-hydroxy-4-octen-2,6-diynyloxy)-5,8-quinolinedione] |  |  |  |  | 5 times | 51 times | Neg |
| 116 ± 2.9 µM | 169 ± 4.8 µM | 16.5 ± 1.9 µM |  | Cc1ccc2c(n1)C(=O)C(OCC#CC=CC#CCO)=C(Cl)C2=O [Compound 25, 6-Chloro-7-(8-hydroxy-4-octen-2,6-diynyloxy)-2-methyl-5,8-quinolinedione] | 0.23 | 0.16 |  | 27.1 ± 1.1 µM |  |  |  |

| SMILES | IC50 (C-32) | IC50 (SNB-19) | IC50 (MDA-MB-231; [1]) | IC50 ± SD MDA-MB-231 (MDA-MB-231; [1]) | SI (IC50 HFF-1/IC50 cancer line) C-32 (C-32) | SI (IC50 HFF-1/IC50 cancer line) SNB-19 (SNB-19) | SI (IC50 HFF-1/IC50 cancer line) MDA-MB-231 (MDA-MB-231) | IC50 (HFF-1) | times more activity against the C-32 cell compared to cisplatin (C-32; C-32, ratio of IC50 vs cisplatin) | times more activity against the C-32 cell compared to (Z)-4-octen-2,6-diyn-1,8-diol (22) (C-32; C-32, ratio of IC50 vs compound 22) | IC50 ± SD HFF-1 (HFF-1) |
| --- | --- | --- | --- | --- | --- | --- | --- | --- | --- | --- | --- |
| O=C1C(Cl)=C(Cl)C(=O)c2ccccc21 [Compound 1, 2,3-Dichloro-1,4-naphtoquinon, reference compound] | 25 ± 0.3 µM | 26.6 ± 0.5 µM | 31.9 ± 2.7 µM |  | 0.62 | 0.59 | 0.49 | 15.6 ± 0.3 µM |  |  |  |
| O=C1C2=C(OCC#C/C=C\C#CCO2)C(=O)c2ccccc21 [Compound 26, 8-Octen-6,10-diynyl-1,4-dioxocyclododeca[2,3-g]-1,4-naphthoquinon] | 30.3 ± 3.1 µM | 22.8 ± 1.4 µM | 2 ± 0.2 µM |  | 0.58 | 0.77 |  | 17.5 ± 1.3 µM |  |  |  |
| O=C1C2=C(OCC#C/C=C\C#CCO2)C(=O)c2ncccc21 [Compound 27, 8-Octen-6,10-diynyl-1,4-dioxocyclododeca[2,3-g]-5,8-quinolinedione] | 48.4 ± 8.9 µM | 31.5 ± 2.5 µM | 25.1 ± 2.4 µM |  | 0.27 | 0.41 |  | 13 ± 3.4 µM |  |  |  |
| Cc1ccc2c(n1)C(=O)C1=C(OCC#C/C=C\C#CCO1)C2=O [Compound 28, 8-Octen-6,10-diynyl-1,4-8-octen-6,10-diynyl-1,4-dioxocyclododeca[2,3-g]-2-methyl-5,8-quinolinedione] | 155 ± 3.7 µM | 157 ± 5.7 µM | 174 ± 5.9 µM |  | 0.18 | 0.18 |  | 27.8 ± 1.2 µM |  |  |  |
